Source: patent publication US20180298010A1, “PRMT5 INHIBITORS AND USES THEREOF” (Epizyme, Inc., priority 2012, published 2018)

Assays:
Z-138 cells = test: Z-138 Proliferation Assay (Cell Titer Glo, 5 days); assay type: cell-based; conditions: Homo sapiens, 120 h
From the text: Z-138 Proliferation Assay
Z-138 suspension cells were purchased from ATCC (American Type Culture Collection, Manassas, Va.). RPMI/Glutamax medium, penicillin-streptomycin, heat inactivated fetal bovine serum were purchased from Life Technologies, Grand Island, N.Y., USA. V-bottom polypropylene 384-well plates were purchased from Greiner Bio-One, Monroe, N.C., USA. Cell culture 384-well white opaque plates were purchased from Perkin Elmer, Waltham, Mass., USA. Cell-Titer Glo® was purchased from Promega Corporation, Madison, Wis., USA. SpectraMax M5 plate reader was purchased from Molecular Devices LLC, Sunnyvale, Calif., USA.
Z-138 suspension cells were maintained in growth medium (RPMI 1640 supplemented with 10% v/v heat inactivated fetal bovine serum and cultured at 37° C. under 5% CO2 Under assay conditions, cells were incubated in assay medium (RPMI 1640 supplemented with 10% v/v heat inactivated fetal bovine serum and 100 units/mL penicillin-streptomycin) at 37° C. under 5% CO2.
For the assessment of the effect of compounds on the proliferation of the Z-138 cell line, exponentially growing cells were plated in 384-well white opaque plates at a density of 10,000 cells/ml in a final volume of 50 μl of assay medium. A compound source plate was prepared by performing triplicate nine-point 3-fold serial dilutions in DMSO, beginning at 10 mM (final top concentration of compound in the assay was 20 μM and the DMSO was 0.2%). A 100 nL aliquot from the compound stock plate was added to its respective well in the cell plate. […] After addition of compounds, assay plates were incubated for 5 days at 37° C., 5% CO2, relative humidity>90%.
Cell viability was measured by quantitation of ATP present in the cell cultures, adding 35 μl of Cell Titer Glo® reagent to the cell plates. Luminescence was read in the SpectraMax M5 microplate reader. The concentration of compound inhibiting cell viability by 50% was determined using a 4-parametric fit of the normalized dose response curves.

PRMT5/MEP50 = target: T1, PRMT5/MEP50 (Homo sapiens, UniProt O14744); test: PRMT5 Biochemical Assay (PRMT5/MEP50 enzyme assay on peptide substrate, 3H-SAM Flashplate)
T1 construct: Flag-PRMT5; 6His-MEP50
T1 sequence (O14744 with tags, fused parts or gaps): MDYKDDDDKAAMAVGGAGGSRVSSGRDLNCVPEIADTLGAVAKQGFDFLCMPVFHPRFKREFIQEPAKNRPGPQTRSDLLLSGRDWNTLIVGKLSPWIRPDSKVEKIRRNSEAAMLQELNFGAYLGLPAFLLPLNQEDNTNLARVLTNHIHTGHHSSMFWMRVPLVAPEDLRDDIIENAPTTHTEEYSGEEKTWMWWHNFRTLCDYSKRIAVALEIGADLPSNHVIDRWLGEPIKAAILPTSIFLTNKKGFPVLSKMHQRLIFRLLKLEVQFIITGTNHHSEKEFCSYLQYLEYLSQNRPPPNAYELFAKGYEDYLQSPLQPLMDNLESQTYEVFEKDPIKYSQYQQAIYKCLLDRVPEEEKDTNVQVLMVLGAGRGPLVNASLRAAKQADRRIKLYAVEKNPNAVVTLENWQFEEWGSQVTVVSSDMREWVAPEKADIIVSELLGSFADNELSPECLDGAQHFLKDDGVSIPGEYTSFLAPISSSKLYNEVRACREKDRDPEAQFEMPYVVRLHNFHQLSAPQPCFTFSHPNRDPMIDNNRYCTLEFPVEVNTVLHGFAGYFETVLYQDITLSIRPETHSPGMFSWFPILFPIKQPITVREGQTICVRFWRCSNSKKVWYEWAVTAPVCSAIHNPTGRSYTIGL
T1 sequence (Q9BQA1 with tags, fused parts or gaps partner): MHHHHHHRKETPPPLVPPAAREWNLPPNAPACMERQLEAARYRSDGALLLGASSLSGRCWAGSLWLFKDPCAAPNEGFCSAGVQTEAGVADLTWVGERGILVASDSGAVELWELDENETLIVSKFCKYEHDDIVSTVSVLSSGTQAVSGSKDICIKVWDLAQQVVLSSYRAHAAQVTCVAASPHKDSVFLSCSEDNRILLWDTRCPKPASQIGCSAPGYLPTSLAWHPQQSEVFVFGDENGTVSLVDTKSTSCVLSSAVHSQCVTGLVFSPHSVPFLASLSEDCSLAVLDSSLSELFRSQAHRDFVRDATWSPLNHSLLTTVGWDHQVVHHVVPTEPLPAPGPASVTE
Procedure, shortened: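 FLAG-PRMT5/His-MEP50 from Sf9 cells (4 nM) preincubated 30 min at 25 °C with compound in 20 mM Bicine pH 7.6, 1 mM TCEP, 1% DMSO. Reaction started with 75 nM 3H-SAM on 40 nM biotinylated H4 1-15 peptide, stopped with cold SAM. Bound 3H-peptide counted on streptavidin Flashplates, normalised to DMSO and 100 uM SAH controls.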

[1] = tested on: Symmetric di-Methyl Arginine in Z-138 cells; test: Z-138 Methylation Assay (In Cell Western for symmetric di-methyl arginine and DNA content); assay type: cell-based; conditions: Homo sapiens, read-out: ICW EC50
From the text: Z-138 suspension cells were purchased from ATCC (American Type Culture Collection, Manassas, Va.). RPMI/Glutamax medium, penicillin-streptomycin, heat inactivated fetal bovine serum, and D-PBS were purchased from Life Technologies, Grand Island, N.Y., USA. Odyssey blocking buffer, 800CW goat anti-rabbit IgG (H+L) antibody, and Licor Odyssey infrared scanner were purchased from Licor Biosciences, Lincoln, Nebr., USA. Symmetric di-methyl arginine antibody was purchased from EMD Millipore, Billerica, Mass., USA. 16% Paraformaldehyde was purchased from Electron Microscopy Sciences, Hatfield, Pa., USA.
Z-138 suspension cells were maintained in growth medium (RPMI 1640 supplemented with 10% v/v heat inactivated fetal bovine serum and 100 units/mL penicillin-streptomycin) and cultured at 37° C. under 5% CO2 […]
Calculations: First, the ratio for each well was determined by:
Each plate included fourteen control wells of DMSO only treatment (minimum inhibition) as well as fourteen control wells for maximum inhibition treated with 3 μM of a reference compound (Background wells). The average of the ratio values for each control type was calculated and used to determine the percent inhibition for each test well in the plate. […] Percent inhibition was determined and IC50 curves were generated using triplicate wells per concentration of compound.

Row | SMILES | IC50 (PRMT5/MEP50) [nM] | EC50 [1] [nM] | EC50 (Z-138 cells) [nM]
1 | Cn1cnc2ccc(-c3cccc(OCC(O)CN4CCc5ccccc5C4)c3)cc21 (centres unmarked) [Compound 45, 1-(3,4-dihydroisoquinolin-2(1H)-yl)-3-(3-(1-methyl-1H-benzo[d]imidazol-6-yl)phenoxy)propan-2-ol] |  |  | 1000 to 10000
2 | OC(COc1cccc(-c2ccc3c(c2)OCO3)c1)CN1CCc2ccccc2C1 (centres unmarked) [Compound 59, 1-(3-(benzo[d][1,3]dioxol-5-yl)phenoxy)-3-(3,4-dihydroisoquinolin-2(1H)-yl)propan-2-ol] | 101 to 1000 |  | 10000 to 40000
3 | Cn1cnc2ccc(-c3ccnc(NCC(O)CN4CCc5ccccc5C4)c3)cc21 (centres unmarked) [Compound 118, 1-(3,4-Dihydroisoquinolin-2(1H)-yl)-3-((4-(1-methyl-1H-benzo[d]imidazol-6-yl)pyridin-2-yl)amino)propan-2-ol] |  |  | 1000 to 10000
4 | OC(COc1cccc(-c2ccc3ncsc3c2)c1)CN1CCc2ccccc2C1 (centres unmarked) [Compound 123, 1-(3-(benzo[d]thiazol-6-yl)phenoxy)-3-(3,4-dihydroisoquinolin-2(1H)-yl)propan-2-ol] |  | 1000 to 10000 | 10000 to 40000
5 | Cn1cnc2ccc(-c3cccc(OC[C@@H](O)CN4CCc5ccccc5C4)c3)cc21 [Compound 173] |  |  | 1000 to 10000
6 | Cn1cnc2ccc(-c3cccc(OC[C@H](O)CN4CCc5ccccc5C4)c3)cc21 [Compound 174] |  |  | 1000 to 10000
7 | Cn1cnc2ccc(-c3cccc(OCC(O)CN4CCc5ccccc5C4)c3)nc21 (centres unmarked) [Compound 189, 1-(3,4-dihydroisoquinolin-2(1H)-yl)-3-(3-(3-methyl-3H-imidazo[4,5-b]pyridin-5-yl)phenoxy)propan-2-ol] |  |  | 101 to 1000
8 | O=C(Cn1cnc2ccc(-c3cccc(OCC(O)CN4CCc5ccccc5C4)c3)cc21)N1CCOCC1 (centres unmarked) [Compound 264] | 101 to 1000 |  | 1000 to 10000
9 | Cc1ncc2ccc(-c3cccc(OCC(O)CN4CCc5ccccc5C4)c3)cn12 (centres unmarked) [Compound 266, 1-(3,4-dihydroisoquinolin-2(1H)-yl)-3-(3-(3-methylimidazo[1,5-a]pyridin-6-yl)phenoxy)propan-2-ol] |  |  | 1000 to 10000
10 | Cn1cnc2ccc(-c3ccnc(NC[C@H](O)CN4CCc5ccccc5C4)c3)cc21 [Compound 275] |  |  | 1000 to 10000
11 | Cn1cnc2ccc(-c3ccnc(NC[C@@H](O)CN4CCc5ccccc5C4)c3)cc21 [Compound 276] |  |  | 1000 to 10000

Second part, led by results:

Row | IC50 (PRMT5/MEP50) [nM] | EC50 [1] [nM] | SMILES | EC50 (Z-138 cells) [nM]
12 | 101 to 1000 |  | OC(COc1cccc(-c2ccc3nn[nH]c3c2)c1)CN1CCc2ccccc2C1 (centres unmarked) [Compound 84, 1-(3-(1H-benzo[d][1,2,3]triazol-6-yl)phenoxy)-3-(3,4-dihydroisoquinolin-2(1H)-yl)propan-2-ol] | 1000 to 10000
13 | 101 to 1000 |  | COC(=O)c1cccc(-c2cccc(OCC(O)CN3CCc4ccccc4C3)c2)c1 (centres unmarked) [Compound 135] | > 20000
14 | 101 to 1000 |  | CN1CCN(c2ccc(-c3cccc(OCC(O)CN4CCc5ccccc5C4)c3)cn2)CC1 (centres unmarked) [Compound 149] | 1000 to 10000
15 | 1000 to 10000 |  | COC(=O)c1cncc(-c2cccc(OCC(O)CN3CCc4ccccc4C3)c2)c1 (centres unmarked) [Compound 180] | > 20000
16 | 101 to 1000 |  | OC(COc1cccc(-c2ccc3ncn(C4CNC4)c3c2)c1)CN1CCc2ccccc2C1 (centres unmarked) [Compound 208, 1-(3-(1-(azetidin-3-yl)-1H-benzo[d]imidazol-6-yl)phenoxy)-3-(3,4-dihydroisoquinolin-2(1H)-yl)propan-2-ol] | 1000 to 10000
17 | 101 to 1000 |  | CNC(=O)Cn1cnc2ccc(-c3cccc(OCC(O)CN4CCc5ccccc5C4)c3)cc21 (centres unmarked) [Compound 262] | 1000 to 10000
